Experimental data: patent US20250177408A1, “INHIBITOR OF INTERACTION BETWEEN YAP/TAZ AND TEAD, PREPARATION THEREOF, PHARMACEUTICAL COMPOSITION THEREOF AND USE THEREOF” (ETERN BIOPHARMA (SHANGHAI) CO., LTD., priority 2022, published 2025)

Experiments:
MSTO-211H cells = experiment: Cell proliferation inhibition experiment (CellTiter-Glo); format: cell-based; details: Homo sapiens, 96 hours, read-out: Inhibitory activity of each compound on the proliferation of MSTO-211H cells (grades of IC50 values)
Protocol: In this example, the intracellular ATP was quantitatively determined by the CellTiter-Glo luminescence cell viability detection kit to detect the number of living cells in the culture.
Step 1: MSTO-211H (ATCC, CRL-2081TM) or NCI-H2052 (ATCC, CRL-5915TM) cells were inoculated in a 96-well plate at a density of 1500 cells per well with a volume of 100 μL per well, and the cells were incubated overnight in a 37° C., 5% carbon dioxide incubator. The culture medium used was RPMI1640 medium (GIBCO-A10491-01)+10% FBS (GIBCO-10099141C)+1% penicillin/streptomycin (Pen/Strep) (GIBCO-15070-063).
Step 2: The cells were treated with the compounds to be tested. The compounds to be tested were 3-fold diluted, and a total of 9 concentration gradients were set up; a certain volume of DMSO or the compounds to be tested was added to each well, respectively, and 2 replicates were set up for each concentration, and the final concentration of DMSO was controlled to be no higher than 0.5%. The cells were incubated for 96 hours in a 37° C., 5% carbon dioxide incubator.
Step 3: Cell viability was detected in the control group and treatment group using CellTiter-Glo Luminescent Cell Viability Assay kit (Promega, G7570). 50 μL of CellTiter-Glo was added to each well, mixed well, and incubated at room temperature for 10 minutes. The signal was read using En Vision® Multilabel Plate Reader (Perkin Elmer).
The inhibition percentage (%) was calculated using the following formula: […]
Using Graphpad Prism software, the IC50 values of the compounds inhibiting the CTG signal of cell proliferation activity was calculated.

[1] = target: YAP-TEAD protein interaction (His-TEAD1 (209-426) protein, Bio-YAP peptide (60-100)) (Homo sapiens, UniProt P28347); experiment: YAP-TEAD protein interaction HTRF experiment; format: binding; details: His-TEAD1 (209-426) 10 nM, Bio-YAP peptide 50 nM, read-out: Activity of each compound in blocking YAP-TEAD protein interaction (grades of IC50 values)
Sequence of YAP-TEAD protein interaction (His-TEAD1 (209-426) protein, Bio-YAP peptide (60-100)) (P28347 209-426): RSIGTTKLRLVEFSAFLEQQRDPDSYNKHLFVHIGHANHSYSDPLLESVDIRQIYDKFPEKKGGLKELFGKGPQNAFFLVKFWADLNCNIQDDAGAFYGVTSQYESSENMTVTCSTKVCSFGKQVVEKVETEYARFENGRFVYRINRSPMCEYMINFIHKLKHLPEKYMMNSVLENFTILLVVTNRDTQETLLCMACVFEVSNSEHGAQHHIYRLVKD
In short: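 His-TEAD1 (209-426) at 10 nM final was preincubated 20 min at RT with compounds (10-point 3-fold dilutions, duplicates, 1% DMSO), then Bio-YAP peptide, 10 min. Anti-His-Eu cryptate/streptavidin-XL665 added for 1 h at RT; HTRF read at ex 320 nm, Em665/Em620 ratio ×10000, IC50 from % inhibition.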

Row | IC50 [1] | Compound | IC50 (MSTO-211H cells)
1 | < 50 nM | NC(=O)c1cc2c(c(F)c1-c1c(Cl)c(F)cc3c1C[C@](c1ccccc1)([C@@H]1CCCN1)O3)Oc1cnn(CC(F)F)c(=O)c1O2 (atropisomer, axis not shown) [Compound 121, (S)-8-((S)-5-Chloro-6-fluoro-2-phenyl-2-((S)-pyrrolidin-2-yl)-2,3-dihydrobenzofuran-4-yl)-9-fluoro-3-(2,2-difluoroethyl)-4-oxo-3,4-dihydrobenzo[5,6][1,4]dioxo[2,3-d]pyridazine-7-carboxamide] | 200 to 500 nM
2 | < 50 nM | Cn1nc2c(cc1=O)Oc1cc(C(N)=O)c(-c3c(Cl)c(F)cc4c3C[C@](c3ccccc3)([C@@H]3CCCN3)O4)c(F)c1O2 (atropisomer, axis not shown) [Compound 122, (S)-8-((S)-5-Chloro-6-fluoro-2-phenyl-2-((S)-pyrrolidin-2-yl)-2,3-dihydrobenzofuran-4-yl)-9-fluoro-2-methyl-3-oxo-2,3-trihydrobenzo [5,6][1,4]dioxo [2,3-c]pyridazine-7-carboxamide] | < 200 nM
3 | < 50 nM | Cn1nc2c(cc1=O)Oc1c(cc(C(N)=O)c(-c3c(Cl)c(F)cc4c3C[C@](c3ccccc3)([C@@H]3CCCN3)O4)c1F)O2 (atropisomer, axis not shown) [Compound 123, (S)-7-((S)-5-Chloro-6-fluoro-2-phenyl-2-((S)-pyrrolidin-2-yl)-2,3-dihydrobenzofuran-4-yl)-6-fluoro-1-methyl-3-oxo-2,3-trihydrobenzo [5,6][1,4]dioxo [2,3-c]pyridazine-8-carboxamide] | 200 to 500 nM
4 | < 50 nM | CNC(=O)c1cc2c(c(F)c1-c1c(Cl)c(F)cc3c1C[C@](c1ccccc1)([C@@H]1CCCN1)O3)Oc1cnn(C)c(=O)c1O2 (atropisomer, axis not shown) [Compound 125, (S)-8-((S)-5-Chloro-6-fluoro-2-phenyl-2-((S)-pyrrolidin-2-yl)-2,3-dihydrobenzofuran-4-yl)-9-fluoro-N,3-dimethyl-4-oxo-3,4-dihydroxybenzo[5,6][1,4]dioxo[2,3-d]pyridazine-7-carboxamide] | < 200 nM
5 | < 50 nM | NC(=O)c1cc2c(c(F)c1-c1c(Cl)c(F)cc3c1C[C@](c1ccccc1)([C@@H]1CCCN1)O3)Oc1nn(C3CC3)c(=O)cc1O2 (atropisomer, axis not shown) [Compound 128, (S)-8-((S)-5-Chloro-6-fluoro-2-phenyl-2-((S)-pyrrolidin-2-yl)-2,3-dihydrobenzofuran-4-yl)-2-cyclopropyl-9-fluoro-3-oxo-2,3-hydrobenzo[5,6][1,4]dioxo [2,3-c]pyridazine-7-carboxamide] | < 200 nM
6 | < 50 nM | NC(=O)c1cc2c(c(F)c1-c1c(Cl)c(F)cc3c1C[C@](c1ccccc1)([C@@H]1CCCN1)O3)Oc1cc(=O)n(C3CC3)nc1O2 (atropisomer, axis not shown) [Compound 129, (S)-8-((S)-5-Chloro-6-fluoro-2-phenyl-2-((S)-pyrrolidin-2-yl)-2,3-dihydrobenzofuran-4-yl)-2-cyclopropyl-9-fluoro-3-oxo-2,3-hydrobenzo[5,6][1,4]dioxo [2,3-c]pyridazine-7-carboxamide] | 200 to 500 nM
7 | < 50 nM | [2H]C([2H])([2H])n1ncc2c(c1=O)Oc1c(cc(C(N)=O)c(-c3c(Cl)c(F)cc4c3C[C@](c3ccccc3)([C@@H]3CCCN3)O4)c1F)O2 (atropisomer, axis not shown) [Compound 131, (S)-8-((S)-5-Chloro-6-fluoro-2-phenyl-2-((S)-pyrrolidin-2-yl)-2,3-dihydrobenzofuran-4-yl)-9-fluoro-2-(methyl-d3)-1-oxo-1,2-dihydrobenzo[5,6][1,4]dioxo[2,3-d]pyridazine-7-carboxamide] | < 200 nM
8 | < 50 nM | [2H]C([2H])([2H])n1ncc2c(c1=O)Oc1cc(C(N)=O)c(-c3c(Cl)c(F)cc4c3C[C@](c3ccccc3)([C@@H]3CCCN3)O4)c(F)c1O2 (atropisomer, axis not shown) [Compound 132, (S)-8-((S)-5-Chloro-6-fluoro-2-phenyl-2-((S)-pyrrolidin-2-yl)-2,3-dihydrobenzofuran-4-yl)-9-fluoro-3-(methyl-d3)-4-oxo-3,4-dihydrobenzo[5,6][1,4]dioxo[2,3-d]pyridazine-7-carboxamide] | < 200 nM
9 | < 50 nM | NC(=O)c1cc2c(c(F)c1-c1c(Cl)c(F)cc3c1C[C@](c1ccccc1)([C@@H]1CCCN1)O3)Oc1c(cnn(CCC(F)(F)F)c1=O)O2 (atropisomer, axis not shown) [Compound 133, (S)-8-((S)-5-Chloro-6-fluoro-2-phenyl-2-((S)-pyrrolidin-2-yl)-2,3-dihydrobenzofuran-4-yl)-9-fluoro-2-(3,3,3-trifluoropropyl)-1-oxo-1,2-dihydrobenzo[5,6][1,4]dioxo[2,3-d]pyridazine-7-carboxamide] | < 200 nM
10 | < 50 nM | NC(=O)c1cc2c(c(F)c1-c1c(Cl)c(F)cc3c1C[C@](c1ccccc1)([C@@H]1CCCN1)O3)Oc1cnn(CCC(F)(F)F)c(=O)c1O2 (atropisomer, axis not shown) [Compound 134, (S)-8-((S)-5-Chloro-6-fluoro-2-phenyl-2-((S)-pyrrolidin-2-yl)-2,3-dihydrobenzofuran-4-yl)-9-fluoro-3-(3,3,3-trifluoropropyl)-4-oxo-3,4-dihydrobenzo[5,6][1,4]dioxo[2,3-d]pyridazine-7-carboxamide] | 500 to 5000 nM
11 | < 50 nM | Cn1ccc2c(c1=O)Oc1c(cc(C(N)=O)c(-c3c(Cl)c(F)cc4c3C[C@](c3ccccc3)([C@@H]3CCCN3)O4)c1F)O2 (atropisomer, axis not shown) [Compound 135, (S)-8-((S)-5-Chloro-6-fluoro-2-phenyl-2-((S)-pyrrolidin-2-yl)-2,3-dihydrobenzofuran-4-yl)-9-fluoro-2-methyl-1-oxo-1,2-dihydrobenzo[5,6][1,4]dioxo[2,3-c]pyridine-7-carboxamide] | < 200 nM
12 | < 50 nM | Cn1ccc2c(c1=O)Oc1cc(C(N)=O)c(-c3c(Cl)c(F)cc4c3C[C@](c3ccccc3)([C@@H]3CCCN3)O4)c(F)c1O2 (atropisomer, axis not shown) [Compound 136, (S)-7-((S)-5-Chloro-6-fluoro-2-phenyl-2-((S)-pyrrolidin-2-yl)-2,3-dihydrobenzofuran-4-yl)-6-fluoro-2-methyl-1-oxo-1,2-dihydrobenzo[5,6][1,4]dioxo[2,3-c]pyridine-8-carboxamide] | < 200 nM
13 | < 50 nM | NC(=O)c1cc2c(c(F)c1-c1c(Cl)c(F)cc3c1C[C@](c1ccccc1)([C@@H]1CCCN1)O3)Oc1c(ncn(CCF)c1=O)O2 (atropisomer, axis not shown) [Compound 137, (S)-7-((S)-5-Chloro-6-fluoro-2-phenyl-2-((S)-pyrrolidin-2-yl)-2,3-dihydrobenzofuran-4-yl)-6-fluoro-3-(2-fluoroethyl)-4-oxo-3,4-dihydrobenzo[5,6][1,4]dioxo [2,3-d]pyrimidine-8-carboxamide] | < 200 nM
14 | < 50 nM | NC(=O)c1cc2c(c(F)c1-c1c(Cl)c(F)cc3c1C[C@](c1ccccc1)([C@@H]1CCCN1)O3)Oc1ncn(CCF)c(=O)c1O2 (atropisomer, axis not shown) [Compound 138, (S)-8-((S)-5-Chloro-6-fluoro-2-phenyl-2-((S)-pyrrolidin-2-yl)-2,3-dihydrobenzofuran-4-yl)-9-fluoro-3-(2-fluoroethyl)-4-oxo-3,4-dihydrobenzo [5,6][1,4]dioxo [2,3-d]pyrimidine-7-carboxamide] | < 200 nM
15 | < 50 nM | NC(=O)c1cc2c(c(F)c1-c1c(Cl)c(F)cc3c1C[C@](c1ccccc1)([C@@H]1CCCN1)O3)Oc1c(ncn(C3CC3)c1=O)O2 (atropisomer, axis not shown) [Compound 139, (S)-7-((S)-5-Chloro-6-fluoro-2-phenyl-2-((S)-pyrrolidin-2-yl)-2,3-dihydrobenzofuran-4-yl)-3-cyclopropyl-6-fluoro-4-oxo-3,4-dihydrobenzo [5,6][1,4]dioxo [2,3-d]pyrimidine-8-carboxamide] | < 200 nM
16 | < 50 nM | NC(=O)c1cc2c(c(F)c1-c1c(Cl)c(F)cc3c1C[C@](c1ccccc1)([C@@H]1CCCN1)O3)Oc1ncn(C3CC3)c(=O)c1O2 (atropisomer, axis not shown) [Compound 140] | < 200 nM
